The target in the assay is T1, GH32 β-D-fructofuranosidase BBDE_1523 (Bifidobacterium dentium, UniProt D2Q5I2).
T1 construct: gene fosC; cloned and expressed as BpDFA-IIIase (pET23a, C-terminal His-tag, E. coli BL21(DE3), TALON)
T1 sequence (D2Q5I2 1-518): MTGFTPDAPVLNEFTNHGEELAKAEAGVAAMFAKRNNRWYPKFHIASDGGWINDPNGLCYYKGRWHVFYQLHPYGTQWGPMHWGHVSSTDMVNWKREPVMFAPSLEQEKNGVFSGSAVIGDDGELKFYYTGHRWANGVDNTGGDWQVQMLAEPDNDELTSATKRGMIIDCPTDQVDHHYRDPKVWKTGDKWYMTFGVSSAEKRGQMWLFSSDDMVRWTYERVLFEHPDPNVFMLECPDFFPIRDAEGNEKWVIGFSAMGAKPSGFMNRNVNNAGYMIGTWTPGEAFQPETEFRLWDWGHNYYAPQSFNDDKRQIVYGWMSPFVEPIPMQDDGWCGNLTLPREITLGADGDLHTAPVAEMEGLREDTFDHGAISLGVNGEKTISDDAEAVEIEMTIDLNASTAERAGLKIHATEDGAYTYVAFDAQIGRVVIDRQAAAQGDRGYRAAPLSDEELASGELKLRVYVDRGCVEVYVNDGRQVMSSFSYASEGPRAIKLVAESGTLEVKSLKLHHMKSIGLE
Briefly: TLC and HPAEC-PAD. The note with it: 50 mM acetate pH 6.0, 37 °C, overnight; together with BpDFA-IIIase. Type of assay: biochemical.

As to `OC[C@H]1O[C@@](CO)(OCC2(O)OC[C@@H](O)[C@@H](O)[C@@H]2O)[C@@H](O)[C@@H]1O` (stereo partly shown) [inulobiose], the “TLC and HPAEC-PAD” value is “DFA-III was completely hydrolyzed into D-fructose via inulobiose”.

The values above are taken from PMC11538131, “Degradation mechanism of difructose dianhydride III in Blautia species” (Applied Microbiology and Biotechnology, 2024).
